In US20030187007A1, “Inhibitors of protein kinase for the treatment of disease” (priority 2001, published 2003):

Assays:
[1] = tested on: SK-MEL-2; test: In vitro tumor cell efficacy test (SRB), Melonoma; assay type: cell-based; conditions: Homo sapiens, SK-MEL-2, Melonoma, 72 hours
[2] = tested on: HOP-92; assay type: cell-based; conditions: Homo sapiens, HOP-92, Non-Small Cell Lung Cancer, 72 hours
[3] = tested on: BT-549; test: In vitro tumor cell efficacy test (SRB), Breast Cancer; assay type: cell-based; conditions: Homo sapiens; BT-549, Breast Cancer, 72 hours
[4] = tested on: NCI-H522; assay type: cell-based; conditions: Homo sapiens; NCI-H522, Non-Small Cell Lung Cancer, 72 hours
[5] = tested on: RXF 393; test: In vitro tumor cell efficacy test (SRB), Renal Cancer; assay type: cell-based; conditions: Homo sapiens, RXF 393, Renal Cancer, 72 hours
[6] = tested on: OVCAR-4; test: In vitro tumor cell efficacy test (SRB), Ovarian Cancer; assay type: cell-based; conditions: Homo sapiens, OVCAR-4, Ovarian Cancer, 72 hours
[7] = tested on: MDA-MB-435; test: In vitro tumor cell efficacy test (SRB), Breast Cancer; assay type: cell-based; conditions: Homo sapiens, MDA-MB-435, Breast Cancer, 72 hours
[8] = tested on: A498; test: In vitro tumor cell efficacy test (SRB), Renal Cancer; assay type: cell-based; conditions: Homo sapiens, 72 hours
[9] = tested on: HCT-116; test: In vitro tumor cell efficacy test (SRB), Colon Cancer; assay type: cell-based; conditions: Homo sapiens; HCT-116, Colon Cancer, 72 hours
[10] = tested on: SF-539; test: In vitro tumor cell efficacy test (SRB), CNS Cancer; assay type: cell-based; conditions: Homo sapiens; SF-539, CNS Cancer, 72 hours
[11] = tested on: panel of protein kinases; test: Specificity studies, overall statement; assay type: biochemical
Protocol: The assays of kinases were determined by monitoring the phosphorylation of appropriate substrates. The assay mixture contained 0.1 mM cold ATP ^33P-γ-ATP (2000-4000 cpm/μL), 0.1 mM substrate, 1 mM DTT, and 10 mM MgCl2 in 100 mM HEPES buffer pH 7.4. The assay mixture, along with inhibitor and kinase enzyme (0.3-0.4 U/mL), was mixed together in a microtiter 96-well plate in a final volume of 40 μL, sealed and incbated for 1 hour at 30° C. Following incubation, a 15 μL aliquot was added to a Whatman P81 filtration plate containing 100 μL 0.5% phosphoric acid. This mixture was allowed to stand for 5 minutes prior to filtration on a vacuum manifold. The filter plate was washed with 5 successive additions of 300 μL 0.5% phosporic acid. The filtration plate was air dried for 10 minutes before sealing the bottom. After addition of scintillation fluid to the sealed plate, phosphorylated substrate was quantified in a scintillation counter.

[12] = tested on: MDA-N; test: In vitro tumor cell efficacy test (SRB), Breast Cancer; assay type: cell-based; conditions: Homo sapiens, 72 hours
[13] = tested on: A549/ATCC; assay type: cell-based; conditions: Homo sapiens, Non-Small Cell Lung Cancer, 72 hours
[14] = tested on: CAKI-1; test: In vitro tumor cell efficacy test (SRB), Renal Cancer; assay type: cell-based; conditions: Homo sapiens, CAKI-1, Renal Cancer, 72 hours
[15] = tested on: HOP-62; assay type: cell-based; conditions: Homo sapiens, HOP-62, Non-Small Cell Lung Cancer, 72 hours
[16] = tested on: HCC-2998; test: In vitro tumor cell efficacy test (SRB), Colon Cancer; assay type: cell-based; conditions: Homo sapiens, HCC-2998, Colon Cancer, 72 hours
[17] = tested on: SF-268; test: In vitro tumor cell efficacy test (SRB), CNS Cancer; assay type: cell-based; conditions: Homo sapiens, SF-268, CNS Cancer, 72 hours
[18] = tested on: PC-3; test: In vitro tumor cell efficacy test (SRB), Prostate Cancer; assay type: cell-based; conditions: Homo sapiens, PC-3, Prostate Cancer, 72 hours
[19] = tested on: ACHN; test: In vitro tumor cell efficacy test (SRB), Renal Cancer; assay type: cell-based; conditions: Homo sapiens, 72 hours
[20] = tested on: DU-145; test: In vitro tumor cell efficacy test (SRB), Prostate Cancer; assay type: cell-based; conditions: Homo sapiens; DU-145, Prostate Cancer, 72 hours
[21] = tested on: HCT-15; test: In vitro tumor cell efficacy test (SRB), Colon Cancer; assay type: cell-based; conditions: Homo sapiens; HCT-15, Colon Cancer, 72 hours
[22] = tested on: K-562; test: In vitro tumor cell efficacy test (SRB), Leukemia; assay type: cell-based; conditions: Homo sapiens, K562, K-562, Leukemia, 72 hours
[23] = tested on: 786-0; test: In vitro tumor cell efficacy test (SRB), Renal Cancer; assay type: cell-based; conditions: Homo sapiens, 786-0, Renal Cancer, 72 hours
[24] = tested on: SR; test: In vitro tumor cell efficacy test (SRB), Leukemia; assay type: cell-based; conditions: Homo sapiens, 72 hours
[25] = tested on: COLO 205; test: In vitro tumor cell efficacy test (SRB), Colon Cancer; assay type: cell-based; conditions: Homo sapiens, COLO 205, Colon Cancer, 72 hours
[26] = tested on: MDA-MB-231/ATCC; test: In vitro tumor cell efficacy test (SRB), Breast Cancer; assay type: cell-based; conditions: Homo sapiens, 72 hours
[27] = read-out: Log (LC50) (the source's name) (converted)

Nc1nccc(-c2cc(-c3ccc(O)cc3)ccc2O)n1 [3-(2-Amino-pyrimidin-4-yl)-biphenyl-4,4′-diol] was tested. Which GI50 [1] did it give?
The GI50 was 200 nM.

And the CC50 [1, 27]?
The CC50 was 3160 nM.

What about the GI50 [2] of the same compound?
The GI50 was 398 nM.

What about the CC50 [2, 27] of the same compound?
Its CC50 is > 100000 nM.

What about the GI50 [3] of the same compound?
The GI50 was 251 nM.

What about the LC50 [3] of the same compound?
The LC50 was > 100000 nM.

And the GI50 [4]?
Its GI50 is 200 nM.

What about the LC50 [4] of the same compound?
Its LC50 is > 100000 nM.

What about the GI50 [5] of the same compound?
Its GI50 is 1000 nM.

What about the CC50 [5, 27] of the same compound?
Its CC50 is 6310 nM.

And the GI50 [6]?
The GI50 was 316 nM.

And the CC50 [6, 27]?
The CC50 was > 100000 nM.

And the GI50 [7]?
The GI50 was 251 nM.

What about the CC50 [7, 27] of the same compound?
The CC50 was > 100000 nM.

And the GI50 [8]?
Its GI50 is 1580 nM.

And the CC50 [8, 27]?
Its CC50 is > 100000 nM.

What about the GI50 [9] of the same compound?
The GI50 was 158 nM.

And the LC50 (concentration killing 50% of cells) [9]?
The LC50 (concentration killing 50% of cells) was > 100000 nM.

And the GI50 [10]?
The GI50 was 200 nM.

What about the LC50 [10] of the same compound?
The LC50 was > 100000 nM.

What about the specificity ([11]; CDK5 and CDK2 versus a panel of protein kinases) of the same compound?
Its specificity is “highly specific for CDK5 and CDK2”.

What about the “inhibition against a panel of protein kinases” value ([11]; panel of protein kinases) of the same compound?
Its value is “little inhibition”.

What about the GI50 [12] of the same compound?
Its GI50 is 251 nM.

And the CC50 [12, 27]?
The CC50 was > 100000 nM.

And the GI50 [13]?
Its GI50 is 316 nM.

And the GI50 [14]?
Its GI50 is 398 nM.

And the CC50 [14, 27]?
The CC50 was > 100000 nM.

And the GI50 [15]?
Its GI50 is 79.4 nM.

What about the CC50 [15, 27] of the same compound?
Its CC50 is 7940 nM.

And the GI50 [16]?
The GI50 was 1260 nM.

And the CC50 [16, 27]?
The CC50 was > 100000 nM.

What about the GI50 [17] of the same compound?
The GI50 was 251 nM.

What about the CC50 [17, 27] of the same compound?
The CC50 was > 100000 nM.

And the GI50 [18]?
The GI50 was 251 nM.

What about the CC50 [18, 27] of the same compound?
The CC50 was > 100000 nM.

And the GI50 [19]?
The GI50 was 251 nM.

And the CC50 [19, 27]?
The CC50 was > 100000 nM.

And the GI50 [20]?
Its GI50 is 794 nM.

What about the LC50 [20] of the same compound?
The LC50 was > 100000 nM.

What about the GI50 [21] of the same compound?
The GI50 was 126 nM.

And the LC50 [21]?
Its LC50 is > 100000 nM.

And the GI50 [22]?
Its GI50 is 398 nM.

And the CC50 [22, 27]?
The CC50 was > 100000 nM.

What about the GI50 [23] of the same compound?
The GI50 was 251 nM.

What about the CC50 [23, 27] of the same compound?
Its CC50 is > 100000 nM.

And the GI50 [24]?
The GI50 was 10 nM.

What about the CC50 [24, 27] of the same compound?
Its CC50 is > 100000 nM.

What about the GI50 [25] of the same compound?
The GI50 was 7940 nM.

And the CC50 [25, 27]?
Its CC50 is > 100000 nM.

And the GI50 [26]?
The GI50 was 251 nM.

And the CC50 [26, 27]?
Its CC50 is > 100000 nM.
